The values that follow come from US20230141887A1, “CRYSTAL FORM OF DIAZASPIROPYRAN COMPOUND” (MEDSHINE DISCOVERY INC., priority 2020, published 2023).

Data set [1] is described as follows: In vivo pharmacokinetic assay in mice. Set-up: species or system CD-1 male mice. How it is done:
CD-1 male mice aged 7 to 10 weeks were selected. The doses for intravenous and oral administration were 1 mg/kg and 2.5 mg/kg, respectively. The mice were fasted for at least 12 hours before the administration, and resumed feeding 4 hours after the administration. The mice had free access to water throughout the assay period.
On the day of the assay, the animals in the intravenous group were administrated the corresponding compound through a single injection in the tail vein at an administration volume of 5 mL/kg; the oral group were administrated the corresponding compound through a single intragastric gavage at an administration volume of 10 mL/kg. The animals were weighed before administration, and the administration volume was calculated based on the body weight. The time for collecting samples was: 0.083 (the injection group), 0.25, 0.5, 1, 2, 4, 8, 24 h. About 30 μL of whole blood was collected from the saphenous vein at each time point to prepare plasma for concentration determination by high-performance liquid chromatography-tandem mass spectrometry (LC-MS/MS). All animals were euthanized by CO2 anesthesia after collecting the PK samples at the last time point. The plasma concentrations were processed by non-compartmental model of WinNonlin™ Version 6.3 (Pharsight, Mountain View, Calif.) pharmacokinetic software, and the pharmacokinetic parameters were calculated by the linear logarithm trapezoidal method.

In another data set the target is T1, FLT3(ITD, F691L) (Homo sapiens, UniProt P36888, F691L, form not given).
T1 construct: fused on or other part: DNA tag for the qPCR read-out (the KINOMEscan format)
T1 sequence (P36888 1-993 F691L): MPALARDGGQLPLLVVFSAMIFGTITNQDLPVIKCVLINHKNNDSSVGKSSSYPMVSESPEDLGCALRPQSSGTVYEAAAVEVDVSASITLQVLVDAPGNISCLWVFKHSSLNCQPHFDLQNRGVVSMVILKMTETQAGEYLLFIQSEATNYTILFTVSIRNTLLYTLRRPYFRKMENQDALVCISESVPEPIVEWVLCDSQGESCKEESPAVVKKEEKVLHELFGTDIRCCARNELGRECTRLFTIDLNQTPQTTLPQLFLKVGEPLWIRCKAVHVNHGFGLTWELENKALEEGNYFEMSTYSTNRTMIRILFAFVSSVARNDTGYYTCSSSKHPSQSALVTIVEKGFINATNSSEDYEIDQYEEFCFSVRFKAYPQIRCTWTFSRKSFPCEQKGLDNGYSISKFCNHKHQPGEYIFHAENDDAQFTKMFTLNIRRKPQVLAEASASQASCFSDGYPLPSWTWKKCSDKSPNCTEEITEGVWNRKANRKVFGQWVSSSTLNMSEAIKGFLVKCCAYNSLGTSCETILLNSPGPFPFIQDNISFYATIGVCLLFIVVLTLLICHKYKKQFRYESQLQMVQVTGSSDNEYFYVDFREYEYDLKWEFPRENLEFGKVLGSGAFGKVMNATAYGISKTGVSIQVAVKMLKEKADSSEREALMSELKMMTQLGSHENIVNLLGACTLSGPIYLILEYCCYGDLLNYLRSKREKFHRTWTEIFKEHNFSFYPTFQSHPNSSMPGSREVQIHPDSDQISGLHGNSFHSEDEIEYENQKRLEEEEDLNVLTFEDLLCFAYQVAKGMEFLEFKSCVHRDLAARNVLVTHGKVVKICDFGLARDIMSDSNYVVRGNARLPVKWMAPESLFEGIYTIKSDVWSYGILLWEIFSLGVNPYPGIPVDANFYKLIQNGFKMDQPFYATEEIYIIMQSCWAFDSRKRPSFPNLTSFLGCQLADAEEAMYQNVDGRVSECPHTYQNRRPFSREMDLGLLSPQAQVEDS
The data set is classed as binding. How it is done:
(§1) The assay was carried out using KINOMEscan™ technology. The assay compounds were stored in 100% DMSO. The assay was carried out by means of 3-fold dilution and 11-point fitting. All compounds used for Kd determination were dispersed by ultrasound, then directly diluted and tested. All reactions were carried out in a 384-well polypropylene plate. Each portion has a final volume of 0.02 ml. The plate was incubated with shaking at room temperature for 1 hour, and then processed. The kinase concentration in the eluent was finally determined by qPCR method. Kd was obtained by fitting.

The target of the next data set is T2, FLT3(D835Y) (Homo sapiens, UniProt P36888, D835Y).
T2 sequence (P36888 27-993 D835Y): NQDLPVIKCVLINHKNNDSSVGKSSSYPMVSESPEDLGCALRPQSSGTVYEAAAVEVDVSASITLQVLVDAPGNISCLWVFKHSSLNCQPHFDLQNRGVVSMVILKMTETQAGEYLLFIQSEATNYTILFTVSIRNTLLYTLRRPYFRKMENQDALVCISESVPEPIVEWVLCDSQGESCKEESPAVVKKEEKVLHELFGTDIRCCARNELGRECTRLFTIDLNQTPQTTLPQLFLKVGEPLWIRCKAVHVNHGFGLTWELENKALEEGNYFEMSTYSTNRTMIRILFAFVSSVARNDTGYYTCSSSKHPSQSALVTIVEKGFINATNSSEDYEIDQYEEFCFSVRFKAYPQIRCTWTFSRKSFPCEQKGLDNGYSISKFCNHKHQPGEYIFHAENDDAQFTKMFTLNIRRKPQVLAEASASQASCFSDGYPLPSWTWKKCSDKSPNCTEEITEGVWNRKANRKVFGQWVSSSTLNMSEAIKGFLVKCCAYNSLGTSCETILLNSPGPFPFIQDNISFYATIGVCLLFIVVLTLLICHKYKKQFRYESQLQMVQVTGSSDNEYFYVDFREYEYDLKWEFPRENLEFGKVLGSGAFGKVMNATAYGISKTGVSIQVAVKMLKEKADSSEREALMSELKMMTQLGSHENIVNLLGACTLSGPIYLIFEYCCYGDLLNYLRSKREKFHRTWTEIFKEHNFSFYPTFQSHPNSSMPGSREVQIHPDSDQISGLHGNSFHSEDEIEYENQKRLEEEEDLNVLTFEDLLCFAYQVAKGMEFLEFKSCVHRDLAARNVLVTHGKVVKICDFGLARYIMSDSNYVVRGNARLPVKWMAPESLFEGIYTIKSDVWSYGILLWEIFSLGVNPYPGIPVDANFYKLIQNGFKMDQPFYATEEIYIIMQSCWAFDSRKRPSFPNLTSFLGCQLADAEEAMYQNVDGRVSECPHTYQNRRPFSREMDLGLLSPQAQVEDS
The data set is classed as binding. As to the method:
as §1

Where [2] appears, read: Oral administration (2.5 mg/kg).

Turning to `CCc1nc(C(N)=O)c(Nc2ccc(N3CCC4(CCN(C)CC4)CC3)c(C)c2)nc1NC1CCOCC1.O=C(O)C(F)(F)F`, in data set [1] (Injection (1 mg/kg)), the AUC0-last was 604 nm·h; the Cl was determined as 2.91 L/h/kg; the T1/2 came out at 2.40 h; the distribution volume (Vdss) (as a rule, the apparent volume that relates the amount in the body to the concentration in plasma or blood) worked out at 8.63 L/kg. Moreover, in data set [1] (setting [2]), the concentration peaked (Cmax) at 0.0605 µM; the F% was determined as 37.3%; the T1/2 is recorded as 4.41 h; the Tmax – broadly, the time at which the peak concentration occurs – is 4.00 h. On FLT3(ITD, F691L) (FLT3(ITD, F691L)), the dissociation constant (Kd) (as a rule, the equilibrium constant for the complex coming apart) was determined as 0.21 nM. For the same compound, the “activity higher than that of the known compound B” value at FLT3(ITD, F691L) (FLT3 (ITD, F691L), ratio of Kd versus compound B) is 3.6 times. This compound also showed a dissociation constant (Kd) on FLT3(D835Y) of 1.4 nM.
